# Results reported in paper PMC9981747, “A covalent BTK ternary complex compatible with targeted protein degradation” (Nature Communications, 2023).
# Values joined by “and” are separate entries in the source; they are usually repeats but may differ in a detail not shown here. Equal entries are not always repeated.
# What was measured:
# Assay type in all cases: cell-based
# BTK^T474I-C481S = biological target: T1, BTK^T474I-C481S (Homo sapiens, UniProt Q06187+Q13490, C481S/T474I); assay: Expi293 dose-dependent degradation of BTK double mutant; details: Expi293 with cIAP1^FL
# T1 construct: we used a full-length BTK (aa1-659) with a C terminal Tobacco Etch Virus protease (TEV) site; expressed in transfected cells; host or cells: Expi293 (HEK293)
# Description: Gibco Expi293 cell line Transfection Kit (Cat.# A14524) was cultured according to the manufacturers conditions. Cells were grown at 37 °C with 5% CO2 to 4 × 10^6 cells/mL using an orbital shaker set to 95 RPM. Next cells were split to 2 × 10^6 cells/mL and transfected with plasmid DNA at a 1 µg/mL final concentration in Optimem (Gibco 31985070) using the Expifectamine 293 transfection reagent according to manufacturer’s conditions. After approximately 18 h, enhancers 1 and 2 (provided with kit). Viability was typically about 85%. When cIAP1^FL was transfected, it was detected via α-cIAP1 antibody there was typically some autoubiquitination detected, and thus often appeared as a laddered or smeared band via western blotting. When BTK^FL variants were transfected, they were detected using anti-BTK antibody (D3H5).
# For dose-dependent degradation assays, cells were plated in a 24-well format and placed on a separate orbital shaker set to 115 RPM. […] Clarified lysate was harvested and quantified using a Pierce BCA Assay Kit (Cat. #23225), and 20 µg of the sample was loaded into a 4–15% Criterion TGX gel (Bio-Rad, 5678085) and transferred to a nitrocellulose membrane (Life Technologies Cat. #IB23001) using an iBlot 2 (Life Technologies Cat. #IB21001). Proteins were detected using an iBind system (Life Technologies SLF2020). […]
# BTK^FL [1] = biological target: T2, BTK^FL (Homo sapiens, UniProt Q06187); assay: Covalent modification of BTK^FL in Expi293 cells without cIAP1, immunopurification and intact mass spectrometry; details: for Cov Form Over Time (% covalent bond formation): 5 µM, no exogenous cIAP1, replicates; for BTK^FL covalently modified: 18 h, n = 1
# T2 construct: we used a full-length BTK (aa1-659) with a C terminal Tobacco Etch Virus protease (TEV) site; expressed in transfected cells; host or cells: Expi293 (HEK293)
# Description: For covalent modification detection assays, the compound was added to Expi293 cells after enhancer treatment. At each timepoint 10 mL of cells were harvested, rapidly cooled to 4 °C in an ice bath, and centrifuged at 100 x g at 4 °C for 5 min. The pellet was washed twice with ice-cold PBS, snap-frozen in liquid nitrogen, and stored at −80 °C. Each pellet was resuspended in 0.1 mL ice-cold RIPA Buffer supplemented with 40 µM BCNC (to outcompete any remaining BCCov), protease inhibitor, and benzonase, and sonicated with 10 brief blasts at power 20. Lysate was centrifuged at 15 K x g for 20 min at 4 °C and prepared for western blotting as detailed above. When samples were evaluated for covalent adduct formation, a purification step was required. Briefly, the ~1 mL of clarified lysate was added to 9 mL of FLAG binding buffer (25 mM HEPES 7.5, 300 mM NaCl, 10% glycerol). These samples were incubated with 250 µL of anti-FLAG M2 affinity resin (Millipore-Sigma Cat. # A2220) for 3 h at 4 °C with gentle nutation. Samples were washed via gravity column filtration and eluted with 0.2 mg/ml FLAG Peptide (DYKDDDDK, CPC Scientific Peptide Company). Each sample was concentrated to 0.1 mg/mL using an Amicon Ultra-15 Centrifugal filter with a 50 kDa MWCO (Millipore-Sigma Cat. # UFC905024). Details on mass spectrometry analysis are below.
# Each sample was analyzed using intact mass spectrometry under denaturing conditions using an Agilent 6530 QToF Mass Spectrometer coupled with an Agilent Infinity 1290 UPLC chromatography system. Spectra were analyzed using ChemLaunch v1.6.8 (Healex Systems), Mass Hunter V7.0 (Agilent Technologies), and BioConfirm v8.0 (Agilent Technologies). For all proteins analyzed, approximately 2 μl of 0.1–0.4 mg/ml protein sample was added to 8 μl 0.2% trifluoroacetic acid (TFA) (Sigma T6508–100 mL). Subsequently, 5 μl of each sample was injected onto the instrument. Depending on the resolution, the amount of protein loaded was altered. Theoretical versus observed molecular weight is presented in Supplementary Table 1. While we have not experimentally determined the post-translational modifications (PTMs) resulting in observed molecular weight, we believe a loss of methionine and acetylation are likely. Variations between theoretical and observed masses may also be due to the resolution of the deconvoluted spectra leading to imperfect peak identification, particularly for a protein with heterogeneous phosphorylation states. Variation of several Daltons is observed between biological replicates and individual experiments.
# BTK^FL [2] = biological target: T3, BTK^FL (Homo sapiens, UniProt Q06187+Q13490); assay: Tetracycline-inducible (T-REx) cIAP1^FL degradation of pre-formed BTK^FL~BCCov in Expi293; details: pre-formed BTK^FL~BCCov (20 µM, 18 h), then tetracycline induction of cIAP1^FL
# T3 construct: we used a full-length BTK (aa1-659) with a C terminal Tobacco Etch Virus protease (TEV) site; expressed in transfected cells; host or cells: Expi293 (HEK293)
# Description: For assays involving inducible cIAP1 expression, 18 h after compound treatment cells were treated with a final concentration of 1.0 µg/mL tetracycline (Teknova Cat. #T3325) and shaken for another 18 h. These samples were processed for western blotting as detailed above. Washout condition consisted of 4 × 10 mL PBS resuspension, centrifugation, and removal repeated for four cycles before resuspension in cellular media.
# T2 sequence (Q06187 whole entry, the tested form may be a part): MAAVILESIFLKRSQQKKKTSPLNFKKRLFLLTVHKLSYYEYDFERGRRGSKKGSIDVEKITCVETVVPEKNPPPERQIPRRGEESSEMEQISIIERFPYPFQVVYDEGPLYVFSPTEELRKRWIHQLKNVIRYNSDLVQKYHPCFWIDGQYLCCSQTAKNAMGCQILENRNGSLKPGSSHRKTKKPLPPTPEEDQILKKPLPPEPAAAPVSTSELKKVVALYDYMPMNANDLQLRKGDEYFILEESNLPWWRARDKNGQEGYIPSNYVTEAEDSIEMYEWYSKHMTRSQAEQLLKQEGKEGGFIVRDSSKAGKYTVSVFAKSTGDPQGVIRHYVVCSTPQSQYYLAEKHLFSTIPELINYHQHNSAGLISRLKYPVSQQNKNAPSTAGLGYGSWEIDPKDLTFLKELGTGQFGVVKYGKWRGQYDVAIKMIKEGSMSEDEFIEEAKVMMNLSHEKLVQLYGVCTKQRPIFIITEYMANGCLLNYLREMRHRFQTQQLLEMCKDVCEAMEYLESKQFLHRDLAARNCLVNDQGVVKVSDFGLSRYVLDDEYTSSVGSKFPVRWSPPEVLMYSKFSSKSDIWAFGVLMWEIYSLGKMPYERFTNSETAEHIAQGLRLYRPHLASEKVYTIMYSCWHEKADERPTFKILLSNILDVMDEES
# T1 sequence (Q06187 whole entry T474I/C481S, the tested form may be a part): as the sequence (Q06187 whole entry, the tested form may be a part) above, with T474I, C481S counted along it
# T1 sequence (Q13490 whole entry, the tested form may be a part): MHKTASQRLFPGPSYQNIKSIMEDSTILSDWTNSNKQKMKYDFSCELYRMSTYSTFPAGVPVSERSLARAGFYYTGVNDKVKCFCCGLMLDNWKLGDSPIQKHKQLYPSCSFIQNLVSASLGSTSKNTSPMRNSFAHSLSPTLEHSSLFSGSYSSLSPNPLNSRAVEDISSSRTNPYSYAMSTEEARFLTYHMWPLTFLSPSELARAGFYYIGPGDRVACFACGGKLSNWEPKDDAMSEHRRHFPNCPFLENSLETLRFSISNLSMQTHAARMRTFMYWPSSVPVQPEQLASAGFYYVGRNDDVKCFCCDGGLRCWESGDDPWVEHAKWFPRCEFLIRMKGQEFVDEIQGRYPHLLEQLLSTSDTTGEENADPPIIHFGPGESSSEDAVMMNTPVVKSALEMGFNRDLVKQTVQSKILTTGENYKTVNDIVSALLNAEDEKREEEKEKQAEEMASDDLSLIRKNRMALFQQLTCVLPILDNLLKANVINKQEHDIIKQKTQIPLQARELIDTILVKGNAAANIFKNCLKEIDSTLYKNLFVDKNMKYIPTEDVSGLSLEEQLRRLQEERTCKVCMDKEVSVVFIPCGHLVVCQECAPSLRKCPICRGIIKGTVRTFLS
# T3 sequence (Q06187 whole entry, the tested form may be a part): as the sequence (Q06187 whole entry, the tested form may be a part) above
# T3 sequence (Q13490 whole entry, the tested form may be a part): as the sequence (Q13490 whole entry, the tested form may be a part) above
smiles,measurement,setting,value
CNC(C)C(=O)NC(C(=O)N1CC(NC(=O)COCCN2CCN(CC=CC(=O)N3CCCC(n4nc(-c5ccc(Oc6ccccc6)cc5)c5c(N)ncnc54)C3)CC2)CC1C(=O)NC1CCCc2ccccc21)C1CCCCC1 (centres unmarked) [BCCov],degradation of BTK^T474I-C481S,BTK^T474I-C481S,loss of activity
same,Cov Form Over Time (% covalent bond formation),BTK^FL [1]; 0.5 h,5.67% and 6.21% and 5.89%
same,Cov Form Over Time (% covalent bond formation),BTK^FL [1]; 1 h,8.64% and 10.21% and 9.49%
same,Cov Form Over Time (% covalent bond formation),BTK^FL [1]; 2 h,14.47% and 13.21% and 14.33%
same,Cov Form Over Time (% covalent bond formation),BTK^FL [1]; 3.5 h,19.26% and 19.25% and 19.86%
same,Cov Form Over Time (% covalent bond formation),BTK^FL [1]; 5.5 h,31.90% and 34.21% and 30.28%
same,Cov Form Over Time (% covalent bond formation),BTK^FL [1]; 7 h,34.24% and 36.81% and 34.22%
same,Cov Form Over Time (% covalent bond formation),BTK^FL [1]; 17 h,33.97% and 36.13% and 34.85%
same,BTK^FL covalently modified,BTK^FL [1]; 5 uM,35.00%
same,BTK^FL covalently modified,BTK^FL [1]; 10 uM,64.70%
same,BTK^FL covalently modified,BTK^FL [1]; 15 uM,77.49%
same,BTK^FL covalently modified,BTK^FL [1]; 30 uM,94.20%
same,time that the level of covalent modification remains stable post-treatment,BTK^FL [1]; single dose 20 µM,at least 48 h
same,Dmax,BTK^FL [2],~70%
